Columns and labels:
Assay type in all cases: cell-based
mouse primary astrocytes [1] = test: NO production in mouse primary astrocytes stimulated with LPS + interferon-gamma; settings: LPS 100 ng/ml + interferon-gamma 50 unit/ml, oligonucleotide after 2 hours, FIG. 6
Experimental: (§1) The prepared astrocytes were treated with LPS (100 ng/ml)+interferon-gamma (50 unit/ml) for inflammatory stimulation, and allowed to stand for 2 hours, and then treated with the oligonucleotide (15 bp Oligo25, SEQ ID NO: 11) to confirm the amount of NO produced and the expression amount of cytokines.

mouse primary astrocytes [2] = test: Cytokine gene expression in mouse primary astrocytes (PCR); settings: LPS 100 ng/ml + interferon-gamma 50 unit/ml, FIG. 7
Experimental: as §1
The expression amount of cytokines was confirmed by measuring the expression level of the cytokine genes using the conventional PCR analysis described in Example 5 above, and the concentration of cytokine proteins in the cell culture using Western blotting.

[3] = system: BV2 cells, a mouse microglia cell line; test: NO production in BV2 microglia stimulated with LPS + interferon-gamma; settings: LPS 100 ng/ml + interferon-gamma 50 unit/ml, oligonucleotide after 2 hours, FIG. 4
[4] = system: mouse primary chondrocytes; test: Osteoarthritis marker gene expression in IL-1β-treated mouse primary chondrocytes (real-time PCR); settings: oligonucleotide 10 ng/mL 2 hours, then IL-1β 6 hours, FIG. 8
[5] = system: BV2 cells, a mouse microglia cell line; test: Pro-inflammatory cytokine gene expression in BV2 microglia (PCR); settings: LPS 100 ng/ml + interferon-gamma 50 unit/ml, FIG. 5
Experimental: The expression amount of cytokines was confirmed by measuring the expression level of cytokine genes in the BV2 cells using conventional PCR analysis, and the specific method is as follows. Total ribonucleic acid (RNA) was extracted from the treated cells using a TRIZOL reagent (Invitrogen, Carlsbad, Calif., United States). Reverse transcription (RT) was carried out using Superscript II reverse transcriptase (Invitrogen) and oligo (dT) primers. PCR amplification was carried out in a C1000 Touch Thermal Cycler (Bio-Rad, Richmond, Calif., United States) at an annealing temperature of 55-60° C. in 25-32 cycles using specific primer sets. The PCR product having ethidium bromide was electrophoresed on a 1% agarose gel and irradiated with ultraviolet rays to observe bands.

## AGG GAG GGA GGG AGG (DNA AGGGAGGGAGGGAGG; listed as DNA, chemistry not given here) [15 bp Oligo25, 15 bp oligonucleotide with ratio of adenosine and guanosine 1:3]
Mouse primary astrocytes [1]
  NO production: NO production was reduced in proportion to the treatment concentration
Mouse primary astrocytes [2]
  expression level of IL-1β gene: significantly reduced
  expression level of IL-6 gene: significantly reduced
  expression level of TNF-α gene: significantly reduced
  expression level of anti-inflammatory cytokine IL-10 gene: significantly increased
[3]
  NO production: NO production was reduced in proportion to the treatment concentration
[4]
  expression level of ADAMTS5 gene: increased
  expression level of MMP3 gene: reduced
  expression level of MMP9 gene: reduced
  expression level of MMP12 gene: reduced
  expression level of MMP13 gene: reduced
[5]
  expression level of IL-1β gene: significantly reduced
  expression level of IL-6 gene: significantly reduced
  expression level of TNF-α gene: significantly reduced

Source: patent US20230165888A1, “OLIGONUCLEOTIDE HAVING ANTI-INFLAMMATORY ACTIVITY” (priority 2019, published 2023)
